Assay results: the NIST ThermoML archive (doi:10.1016/j.jct.2017.10.004)

Assay: xn = mol fraction of the nth substance listed
Conditions: 100 kPa, Liquid; for electrical conductivity: Alternating current cell with electrodes; for viscosity: Capillary tube (Ostwald / Ubbelohde) method; for mass density: Vibrating tube method

Cn1cc[n+](C)c1.O=S(=O)([N-]S(=O)(=O)C(F)(F)F)C(F)(F)F [1,3-dimethylimidazolium bis((trifluoromethyl)sulfonyl)amide] + O=C1CCCO1
Conditions	electrical conductivity, 313.15 K [S/m]	electrical conductivity, 318.15 K [S/m]	electrical conductivity, 323.15 K [S/m]	mass density, 313.15 K [kg/m3]	mass density, 318.15 K [kg/m3]	mass density, 323.15 K [kg/m3]	viscosity, 313.15 K [mPa·s]	viscosity, 318.15 K [mPa·s]	viscosity, 323.15 K [mPa·s]
x1 = 0.05124	1.4	1.5	1.59	1175.06	1170.08	1165.1	1.71	1.62	1.52
x1 = 0.09948	1.98	2.12	2.25	1225.8	1220.75	1215.71	2.2	2.04	1.89
x1 = 0.1551	2.19	2.35	2.51	1274.45	1269.35	1264.27	2.77	2.57	2.39
x1 = 0.2007	2.25	2.42	2.59	1308.37	1303.25	1298.14	3.3	3.03	2.79
x1 = 0.2991	2.23	2.4	2.59	1367.77	1362.59	1357.45	4.7	4.27	3.89
x1 = 0.4002	2.09	2.25	2.45	1414.76	1409.55	1404.4	6.5	5.81	5.3
x1 = 0.4998	1.95	2.12	2.31	1451.46	1446.23	1441.07	8.6	7.64	6.82
x1 = 0.6127	1.76	1.92	2.11	1484.8	1479.57	1474.41	11.46	10.05	8.92
x1 = 0.7009	1.61	1.77	1.96	1506.34	1501.11	1495.96	13.89	12.18	10.71
x1 = 0.8002	1.48	1.65	1.82	1526.95	1521.73	1516.59	16.86	14.75	12.9
x1 = 0.8997	1.32	1.49	1.67	1544.49	1539.27	1534.13	20.08	17.45	15.17
x1 = 1	1.2	1.35	1.51	1559.73	1554.49	1549.34	23.43	20.25	17.72
